The target of this test is LRRK2 G2019S (Homo sapiens, UniProt Q5S007, G2019S). Nature of the test: In vitro biochemical LRRK2 TR-FRET activity assay. The following applies: LRRK2 G2019S, ATP 134 µM (Km,app), LRRKtide substrate, three independent experiments; read-out: Biochemical LRRK2 assay IC50 +/- SD. Background: In TR-FRET formats the signal depends on donor and acceptor labels being close together.
LRRK2 G2019S, sequence (Q5S007 whole entry G2019S): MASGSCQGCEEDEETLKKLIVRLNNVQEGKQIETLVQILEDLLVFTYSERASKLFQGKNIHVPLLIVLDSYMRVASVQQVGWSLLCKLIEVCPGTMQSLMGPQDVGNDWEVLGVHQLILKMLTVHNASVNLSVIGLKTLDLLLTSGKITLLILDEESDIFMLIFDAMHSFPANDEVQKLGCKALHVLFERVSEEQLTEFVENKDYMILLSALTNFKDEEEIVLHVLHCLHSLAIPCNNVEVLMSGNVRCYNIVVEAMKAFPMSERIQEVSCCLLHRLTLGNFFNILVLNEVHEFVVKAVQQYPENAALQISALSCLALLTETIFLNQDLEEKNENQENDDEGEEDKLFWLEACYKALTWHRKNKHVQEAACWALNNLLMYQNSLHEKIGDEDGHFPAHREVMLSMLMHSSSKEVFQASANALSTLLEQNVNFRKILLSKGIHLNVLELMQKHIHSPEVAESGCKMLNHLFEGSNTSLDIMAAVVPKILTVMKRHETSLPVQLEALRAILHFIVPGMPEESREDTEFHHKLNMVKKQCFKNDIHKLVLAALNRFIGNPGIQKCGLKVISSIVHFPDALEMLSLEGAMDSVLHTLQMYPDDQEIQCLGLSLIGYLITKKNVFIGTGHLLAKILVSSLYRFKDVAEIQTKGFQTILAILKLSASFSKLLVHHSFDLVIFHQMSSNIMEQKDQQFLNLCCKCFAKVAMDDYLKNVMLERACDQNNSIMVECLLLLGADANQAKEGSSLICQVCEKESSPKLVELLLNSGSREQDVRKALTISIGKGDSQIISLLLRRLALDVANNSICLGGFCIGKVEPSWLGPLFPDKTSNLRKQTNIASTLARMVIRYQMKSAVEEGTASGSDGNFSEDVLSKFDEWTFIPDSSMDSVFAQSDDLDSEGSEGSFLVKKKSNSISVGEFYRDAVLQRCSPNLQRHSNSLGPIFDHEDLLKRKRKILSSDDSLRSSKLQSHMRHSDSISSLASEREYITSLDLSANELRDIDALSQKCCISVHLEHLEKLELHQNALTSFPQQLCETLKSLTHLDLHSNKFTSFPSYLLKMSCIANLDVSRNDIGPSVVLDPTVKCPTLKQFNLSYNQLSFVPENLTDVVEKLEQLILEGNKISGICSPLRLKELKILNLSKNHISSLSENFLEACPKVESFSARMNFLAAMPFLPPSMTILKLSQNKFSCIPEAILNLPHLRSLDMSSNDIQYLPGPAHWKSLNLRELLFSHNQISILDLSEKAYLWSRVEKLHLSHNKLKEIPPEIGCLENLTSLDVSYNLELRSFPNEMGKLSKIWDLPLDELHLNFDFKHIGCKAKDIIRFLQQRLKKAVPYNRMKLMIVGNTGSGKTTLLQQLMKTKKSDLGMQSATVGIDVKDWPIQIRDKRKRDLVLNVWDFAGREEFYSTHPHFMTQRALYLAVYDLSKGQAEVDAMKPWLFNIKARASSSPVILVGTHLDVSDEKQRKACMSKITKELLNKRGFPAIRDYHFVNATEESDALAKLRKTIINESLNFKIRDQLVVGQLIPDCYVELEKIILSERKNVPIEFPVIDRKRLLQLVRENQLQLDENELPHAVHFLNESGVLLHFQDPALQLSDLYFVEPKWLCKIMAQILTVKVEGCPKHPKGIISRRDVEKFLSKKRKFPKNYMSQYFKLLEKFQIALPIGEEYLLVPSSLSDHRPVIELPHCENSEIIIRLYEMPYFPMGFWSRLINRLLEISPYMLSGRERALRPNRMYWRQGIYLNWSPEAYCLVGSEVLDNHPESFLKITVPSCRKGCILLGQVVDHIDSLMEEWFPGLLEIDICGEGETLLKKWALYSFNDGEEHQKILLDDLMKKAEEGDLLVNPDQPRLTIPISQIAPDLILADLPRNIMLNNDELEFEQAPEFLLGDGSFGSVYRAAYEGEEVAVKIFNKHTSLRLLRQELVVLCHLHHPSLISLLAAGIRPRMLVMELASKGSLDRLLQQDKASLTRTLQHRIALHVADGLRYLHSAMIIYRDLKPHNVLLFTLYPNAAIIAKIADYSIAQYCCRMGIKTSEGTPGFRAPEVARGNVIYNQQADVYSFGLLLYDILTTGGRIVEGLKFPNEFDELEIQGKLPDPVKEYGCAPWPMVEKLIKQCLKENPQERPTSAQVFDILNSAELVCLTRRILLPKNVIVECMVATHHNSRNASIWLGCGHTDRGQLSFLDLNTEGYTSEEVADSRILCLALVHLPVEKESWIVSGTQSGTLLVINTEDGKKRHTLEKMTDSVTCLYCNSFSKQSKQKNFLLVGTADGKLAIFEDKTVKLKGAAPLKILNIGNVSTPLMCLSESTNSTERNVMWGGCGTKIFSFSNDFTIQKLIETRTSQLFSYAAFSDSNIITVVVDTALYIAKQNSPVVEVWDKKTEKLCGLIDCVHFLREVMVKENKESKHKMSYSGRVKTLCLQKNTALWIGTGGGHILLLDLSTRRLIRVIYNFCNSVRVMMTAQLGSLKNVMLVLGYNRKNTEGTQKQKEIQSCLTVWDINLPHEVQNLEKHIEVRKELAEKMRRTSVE

Turning to `COc1cc(C(=O)N2CCC(N3CCN(C)CC3)CC2)ccc1Nc1ncc2c(n1)N(C)c1ccccc1C(=O)N2C` [LRRK2-IN-1], the IC50 was found to be 10 nM.

The record behind these values is publication PMC3429506, “Screening for Novel LRRK2 Inhibitors Using a High-Throughput TR-FRET Cellular Assay for LRRK2 Ser935 Phosphorylation” (PLoS ONE, 2012).
